The values below come from ChEMBL document CHEMBL1143375 (Bioorg Med Chem Lett, 2009).

For one assay, the system named is Rattus norvegicus. The experiment in a line: Antiinflammatory activity in orally dosed rat assessed as inhibition of carrageenan-induced paw edema after 3 hrs. The assay is classed as functional. The settings on record: po. (In general: The carrageenan paw model is a standard test of acute inflammation.)
The nature of assay [1]: Inhibition of potato LOX5. The arrangement: species or system Solanum tuberosum.
The target in assay [2] is T1, Prostaglandin G/H synthase 1 (Ovis aries, UniProt P05979).
T1 sequence (P05979 whole entry): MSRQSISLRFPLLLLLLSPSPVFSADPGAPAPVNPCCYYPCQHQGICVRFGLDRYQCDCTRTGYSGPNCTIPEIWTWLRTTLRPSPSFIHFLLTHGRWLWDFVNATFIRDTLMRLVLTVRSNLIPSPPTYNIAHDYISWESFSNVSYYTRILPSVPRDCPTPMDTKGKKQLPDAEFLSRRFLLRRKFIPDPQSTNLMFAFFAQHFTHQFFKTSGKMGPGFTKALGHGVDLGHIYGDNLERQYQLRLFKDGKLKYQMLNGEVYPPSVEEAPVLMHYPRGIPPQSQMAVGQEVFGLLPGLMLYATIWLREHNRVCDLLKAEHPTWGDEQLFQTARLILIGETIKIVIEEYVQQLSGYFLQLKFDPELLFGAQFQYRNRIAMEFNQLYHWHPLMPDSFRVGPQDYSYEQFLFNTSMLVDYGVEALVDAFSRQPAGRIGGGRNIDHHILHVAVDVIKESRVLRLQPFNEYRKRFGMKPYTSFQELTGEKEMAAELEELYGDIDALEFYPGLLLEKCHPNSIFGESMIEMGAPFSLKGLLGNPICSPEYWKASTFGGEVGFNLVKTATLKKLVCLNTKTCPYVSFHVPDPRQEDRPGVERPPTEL
Description: Inhibition of ovine COX1 by enzyme immuno assay

The target of assay [3] is T2, Prostaglandin G/H synthase 2 (Homo sapiens, UniProt P35354).
T2 sequence (P35354 whole entry): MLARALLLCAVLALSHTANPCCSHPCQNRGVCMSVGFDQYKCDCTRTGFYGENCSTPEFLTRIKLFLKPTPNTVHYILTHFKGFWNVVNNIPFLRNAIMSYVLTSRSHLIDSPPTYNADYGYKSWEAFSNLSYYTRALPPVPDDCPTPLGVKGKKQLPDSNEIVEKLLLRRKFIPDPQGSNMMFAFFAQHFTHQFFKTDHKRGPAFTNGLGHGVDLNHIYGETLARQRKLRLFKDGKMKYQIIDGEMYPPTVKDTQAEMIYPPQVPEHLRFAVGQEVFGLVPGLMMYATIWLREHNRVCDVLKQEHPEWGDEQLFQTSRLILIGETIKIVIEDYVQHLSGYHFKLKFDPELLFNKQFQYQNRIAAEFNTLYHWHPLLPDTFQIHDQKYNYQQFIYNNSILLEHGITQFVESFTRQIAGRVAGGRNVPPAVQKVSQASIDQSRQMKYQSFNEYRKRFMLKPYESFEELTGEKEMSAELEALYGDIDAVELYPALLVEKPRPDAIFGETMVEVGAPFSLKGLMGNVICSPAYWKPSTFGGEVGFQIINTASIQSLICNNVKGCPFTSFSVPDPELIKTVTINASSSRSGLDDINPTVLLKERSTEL
Description: Inhibition of human recombinant COX2 by enzyme immuno assay.

Broadly, the ED50 is the midpoint of the dose-response relation. As for `CC(C)Cc1ccc(C(C)C(=O)O)cc1` (centres undefined) [IBUPROFEN], the median effective dose (ED50) in the assay on Rattus norvegicus turned out to be 67.4 mg/kg.

A word on the IC50: it is the concentration that inhibits the measured activity by half. On to `CS(=O)(=O)c1ccccc1C#Cc1ccc(=O)n(C(F)F)c1`, for which the half-inhibitory concentration (IC50) in assay [1] is 3.4 µM; in assay [2], more than 100 µM; in assay [3] it was 9.4 µM. In addition, the ED50 with Rattus norvegicus is more than 100 mg/kg.

For `CS(=O)(=O)c1ccc(C#Cc2ccc(=O)n(C(F)F)c2)cc1`, the figures for the IC50 in assay [1], in assay [2] and in assay [3] were 3.3 µM, 14.1 µM and 5.1 µM, respectively. In addition, the median effective dose (ED50) with Rattus norvegicus is 68.5 mg/kg.

As for `CS(=O)(=O)c1cccc(C#Cc2ccc(=O)n(C(F)F)c2)c1`, the values for the IC50 in assay [1], in assay [2] and in assay [3] were 3.2 µM, 32.4 µM and 3.7 µM, respectively. Moreover, the ED50 in the assay on Rattus norvegicus was found to be 66.1 mg/kg.

Turning to `NS(=O)(=O)c1ccc(C#Cc2ccc(=O)n(C(F)F)c2)cc1`, the results for the IC50 in assay [1], in assay [2] and in assay [3] were 3.5 µM, 5.2 µM and 6 µM, respectively. Further, the ED50 in the assay on Rattus norvegicus turned out to be 86.5 mg/kg.

On to `CC(=O)Oc1ccccc1C(=O)O` [ASPIRIN], for which, in the assay with Rattus norvegicus, the ED50 came to 129 mg/kg.

The molecule `O=C(O)/C=C/c1ccc(O)c(O)c1` [CAFFEIC ACID] came in with a concentration for half-maximal inhibition (IC50) in assay [1] of 4 µM.
